Among the data in US20240409585A1, “MACROCYCLIC IMMUNOMODULATORS” (priority 2021, published 2024) are IC50 values, retold here.

Bridge positions count the residues as written; N and C are the ends. Square brackets hold non-standard residues; d marks the D form. Peptide text beside a SMILES is read from it. * marks the point of attachment. ξ: configuration not given here. Phe(4-COOH) = N[C@@H](Cc1ccc(C(=O)O)cc1)C(=O)O; Bip = N[C@@H](Cc1ccc(-c2ccccc2)cc1)C(=O)O; Phe(3-CN) = N#Cc1cccc(C[C@H](N)C(=O)O)c1; Phe(3-F) = N[C@@H](Cc1cccc(F)c1)C(=O)O; Phe(3-Me) = Cc1cccc(C[C@H](N)C(=O)O)c1; Val(3-OH) = CC(C)(O)[C@H](N)C(=O)O; 4Pal = N[C@@H](Cc1ccncc1)C(=O)O; Cha = N[C@@H](CC1CCCCC1)C(=O)O; Cit = NC(=O)NCCC[C@H](N)C(=O)O; Ile(3ξ) = CCC(C)[C@H](N)C(=O)O; Thr(3ξ) = CC(O)[C@H](N)C(=O)O; ξCha = NC(CC1CCCCC1)C(=O)O; Carboxymethyl = O=C(O)C*; NMeA = CN[C@@H](C)C(=O)O; Nle = CCCC[C@H](N)C(=O)O; Dab = NCC[C@H](N)C(=O)O; Dap = NC[C@H](N)C(=O)O; Aib = CC(C)(N)C(=O)O

The target of one assay is T1, PE-labeled human PD-L1-Ig binding to Jurkat cell line over-expressing human PD-1 (Jurkat-PD-1) (Homo sapiens, UniProt Q15116).
T1 construct: expressed in transfected cells; host or cells: Jurkat
T1 sequence (Q15116 25-288): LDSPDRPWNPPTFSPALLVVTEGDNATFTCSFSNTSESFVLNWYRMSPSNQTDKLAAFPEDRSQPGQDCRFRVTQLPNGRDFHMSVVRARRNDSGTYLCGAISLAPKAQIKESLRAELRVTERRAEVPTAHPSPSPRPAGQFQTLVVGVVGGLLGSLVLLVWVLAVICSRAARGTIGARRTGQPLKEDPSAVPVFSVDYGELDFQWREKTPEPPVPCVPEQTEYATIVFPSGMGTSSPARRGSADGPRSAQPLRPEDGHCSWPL
Briefly: Jurkat-PD-1 Cell Binding High-Content Screening Assay (CBA): Method 1. The settings on record: Jurkat-PD-1 cells, PE-labeled PD-L1-Ig; μM; read-out: CBA Method 1 μM.
With `CCC(C)[C@@H]1NC(=O)[C@H](Cc2ccc(-c3ccccc3)cc2)NC(=O)[C@H](C(C)C)NC(=O)[C@H](Cc2cccc(C)c2)NC(=O)[C@H](CC(=O)O)NC(=O)[C@H](Cc2ccc(OCC(=O)O)cc2)NC(=O)[C@H](C(C)O)NC(=O)CSC[C@@H](C(=O)N[C@@H](CO)C(=O)NCC(=O)N[C@H](CO)C(N)=O)NC(=O)[C@H](C(C)O)NC(=O)[C@H](C(C)C)NC(=O)C(CC2CCCCC2)NC(=O)[C@H](CCN)NC(=O)[C@@H](CC(C)C)NC(=O)[C@H](C)N(C)C1=O` (stereo partly drawn) [Example 5005] ({CH2CO}-[Thr(3ξ)]Y(Carboxymethyl)D[Phe(3-Me)]V[Bip][Ile(3ξ)][NMeA][dL][Dab][ξCha]V[Thr(3ξ)]CSG[dS]-NH2; thioether N-14), the IC50 was determined as 0.02 µM.

The same assay, now with this note: Jurkat-hPD-1 cells, PE-labeled PD-L1-Ig 20 nM final; read-out: Jurkat HPDL1 PD1 IC50 (uM) (Method 1).
For `CCNC(=O)[C@H](CCN)NC(=O)[C@@H]1CSCC(=O)N[C@@H](Cc2ccncc2)C(=O)N[C@@H](Cc2ccc(OCC(=O)O)cc2)C(=O)N[C@@H](CC(=O)O)C(=O)N[C@@H](Cc2cccc(C)c2)C(=O)N[C@@H](Cc2cccc(F)c2)C(=O)N[C@@H](Cc2ccc(-c3ccccc3)cc2)C(=O)N[C@@H](Cc2ccc(OCC(=O)O)cc2)C(=O)N(C)[C@@H](C)C(=O)N[C@H](CC(C)C)C(=O)N[C@@H](CCN)C(=O)N[C@@H](CC2CCCCC2)C(=O)N[C@@H](C(C)(C)O)C(=O)N[C@@H](CO)C(=O)N1` [Compound 1845] ({CH2CO}-[4Pal]Y(Carboxymethyl)D[Phe(3-Me)][Phe(3-F)][Bip]Y(Carboxymethyl)[NMeA][dL][Dab][Cha][Val(3-OH)]SC[Dab]-NHEt; thioether N-14), the IC50 worked out at 0.01 µM.

`CC(C)C[C@@H]1NC(=O)[C@H](CCN)NC(=O)[C@@H](CC(C)C)NC(=O)[C@H](C)N(C)C(=O)[C@H](CCCNC(N)=O)NC(=O)[C@H](Cc2ccc(-c3ccccc3)cc2)NC(=O)[C@H](C(C)C)NC(=O)[C@H](Cc2c[nH]c3ccccc23)NC(=O)[C@H](CC(=O)O)NC(=O)[C@H](Cc2ccc(O)cc2)NC(=O)[C@H](Cc2ccccc2)NC(=O)CSC[C@@H](C(=O)N[C@@H](C)C(N)=O)NC(=O)[C@H](C(C)O)NC(=O)[C@H](C(C)C)NC1=O` (stereo partly drawn) [Compound 2033] ({CH2CO}-FYDWV[Bip][Cit][NMeA][dL][Dab]LV[Thr(3ξ)]CA-NH2; thioether N-14): the IC50 is 0.03 µM. In the case of `CCCC[C@@H]1NC(=O)[C@H](CCN)NC(=O)[C@@H](CC(C)C)NC(=O)[C@H](C)N(C)C(=O)[C@H](CCCNC(=N)N)NC(=O)[C@H](Cc2ccc(-c3ccccc3)cc2)NC(=O)[C@H](C(C)C)NC(=O)[C@H](Cc2c[nH]c3ccccc23)NC(=O)[C@H](CC(=O)O)NC(=O)[C@H](Cc2ccc(O)cc2)NC(=O)[C@H](CC(N)=O)NC(=O)CSC[C@@H](C(=O)N[C@@H](C)C(N)=O)NC(=O)[C@H]([C@@H](C)O)NC(=O)[C@H](C(C)C)NC1=O` [Compound 1283] ({CH2CO}-NYDWV[Bip]R[NMeA][dL][Dab][Nle]VTCA-NH2; thioether N-14), the IC50 was 0.04 µM. On the same count and under the same terms, then `CC(C)C[C@H]1NC(=O)[C@H](C)N(C)C(=O)[C@H](CCCNC(=N)N)NC(=O)[C@H](Cc2ccc(-c3ccccc3)cc2)NC(=O)[C@H](C(C)C)NC(=O)[C@H](Cc2c[nH]c3ccccc23)NC(=O)[C@H](CC(=O)O)NC(=O)[C@H](Cc2ccc(O)cc2)NC(=O)[C@H](Cc2ccccc2)NC(=O)CSC[C@@H](C(=O)N[C@@H](C)C(N)=O)NC(=O)[C@H]([C@@H](C)O)NC(=O)[C@H](C(C)C)NC(=O)[C@H](CC2CCCCC2)NC(=O)[C@H](CCCNC(=N)N)NC1=O` [Compound 1115] ({CH2CO}-FYDWV[Bip]R[NMeA][dL]R[Cha]VTCA-NH2; thioether N-14), with 0.05 µM; and `CC(C)C[C@@H]1NC(=O)[C@H](Cc2c[nH]c3ccccc23)NC(=O)[C@H](CC(N)=O)NC(=O)[C@H](Cc2ccc(O)cc2)NC(=O)[C@H](Cc2ccccc2)NC(=O)CSC[C@@H](C(=O)N[C@@H](C)C(N)=O)NC(=O)[C@H](CO)NC(=O)[C@H](C(C)C)NC(=O)[C@H](CC(C)C)NC(=O)[C@H](CC(N)=O)NC(=O)[C@@H](C)NC(=O)[C@H](C)N(C)C(=O)[C@H](C(C)C)NC(=O)[C@H](Cc2ccc(-c3ccccc3)cc2)NC1=O` [Compound 1791] ({CH2CO}-FYNWL[Bip]V[NMeA][dA]NLVSCA-NH2; thioether N-14), with 0.13 µM. Take `CC(=O)NCCCC[C@@H]1NC(=O)[C@H](Cc2ccc(-c3ccccc3)cc2)NC(=O)[C@H](Cc2ccc(O)cc2)NC(=O)[C@H](Cc2c[nH]c3ccccc23)NC(=O)[C@H](CC(=O)O)NC(=O)[C@H](Cc2ccc(OCC(=O)O)cc2)NC(=O)[C@H](C(C)O)NC(=O)CSC[C@@H](C(N)=O)NC(=O)[C@H](C(C)O)NC(=O)[C@H](C(C)C)NC(=O)[C@H](CC2CCCCC2)NC(=O)[C@H](CCN)NC(=O)[C@@H](CC(C)C)NC(=O)[C@H](C)N(C)C1=O` (stereo partly drawn) [Compound 2254] ({CH2CO}-[Thr(3ξ)]Y(Carboxymethyl)DWY[Bip]K(Ac)[NMeA][dL][Dab][Cha]V[Thr(3ξ)]C-NH2; thioether N-14): the IC50 is 0.16 µM. On the same count and under the same terms, then `CC[C@H](C)[C@@H]1NC(=O)[C@H](Cc2ccc(-c3ccccc3)cc2)NC(=O)[C@H](C(C)C)NC(=O)[C@H](Cc2c[nH]c3ccccc23)NC(=O)[C@H](CC(=O)O)NC(=O)[C@H](Cc2ccncc2)NC(=O)[C@H](CN)NC(=O)CSC[C@@H](C(=O)N[C@@H](C)C(N)=O)NC(=O)[C@H]([C@@H](C)O)NC(=O)[C@H](C(C)C)NC(=O)[C@H](CC(C)C)NC(=O)[C@H](CCN)NC(=O)[C@@H](CC(C)C)NC(=O)[C@H](C)N(C)C1=O` [Compound 1405] ({CH2CO}-[Dap][4Pal]DWV[Bip]I[NMeA][dL][Dab]LVTCA-NH2; thioether N-14), with 0.03 µM; and `Cc1cccc(C[C@@H]2NC(=O)[C@H](CC(=O)O)NC(=O)[C@H](Cc3ccc(OCC(=O)O)cc3)NC(=O)[C@H](CC(N)=O)NC(=O)CSC[C@@H](C(N)=O)NC(=O)[C@H](CCC(N)=O)NC(=O)[C@H](C(C)C)NC(=O)[C@H](CC3CCCCC3)NC(=O)[C@H](CCN)NC(=O)[C@@H](CC(C)C)NC(=O)[C@H](C)N(C)C(=O)[C@H](Cc3ccc(OCC(=O)O)cc3)NC(=O)[C@H](Cc3ccc(-c4ccccc4)cc3)NC(=O)[C@H](Cc3ccc(OCC(=O)O)cc3)NC2=O)c1` [Compound 1665] ({CH2CO}-NY(Carboxymethyl)D[Phe(3-Me)]Y(Carboxymethyl)[Bip]Y(Carboxymethyl)[NMeA][dL][Dab][Cha]VQC-NH2; thioether N-14), with 0.09 µM; and `CC(C)C[C@@H]1NC(=O)[C@H](CCN)NC(=O)[C@@H](CC(C)C)NC(=O)[C@H](C)N(C)C(=O)[C@H](Cc2cnc[nH]2)NC(=O)[C@H](Cc2ccc(-c3ccccc3)cc2)NC(=O)[C@H](C(C)C)NC(=O)[C@H](Cc2c[nH]c3ccccc23)NC(=O)[C@H](CC(=O)O)NC(=O)[C@H](Cc2ccc(C(=O)O)cc2)NC(=O)[C@H](CN)NC(=O)CSC[C@@H](C(=O)N[C@@H](C)C(N)=O)NC(=O)[C@H]([C@@H](C)O)NC(=O)[C@H](C(C)C)NC1=O` [Compound 1439] ({CH2CO}-[Dap][Phe(4-COOH)]DWV[Bip]H[NMeA][dL][Dab]LVTCA-NH2; thioether N-14), with 0.06 µM.

With `CC[C@H](C)[C@@H]1NC(=O)[C@H](Cc2ccc(-c3ccccc3)cc2)NC(=O)[C@H](C(C)C)NC(=O)[C@H](Cc2c[nH]c3ccccc23)NC(=O)[C@H](CC(=O)O)NC(=O)[C@H](Cc2cccc(C#N)c2)NC(=O)[C@H](Cc2ccncc2)NC(=O)CSC[C@@H](C(=O)N[C@@H](C)C(N)=O)NC(=O)[C@H]([C@@H](C)O)NC(=O)[C@H](C(C)C)NC(=O)[C@H](CC(C)C)NC(=O)[C@H](CCN)NC(=O)[C@@H](CC(C)C)NC(=O)[C@H](C)N(C)C1=O` [Compound 1407] ({CH2CO}-[4Pal][Phe(3-CN)]DWV[Bip]I[NMeA][dL][Dab]LVTCA-NH2; thioether N-14), the IC50 is 0.04 µM. For the molecule `CC(C)C[C@@H]1NC(=O)[C@H](CCCNC(=N)N)NC(=O)C(C)(C)NC(=O)[C@H](C)N(C)C(=O)[C@H](CCCNC(=N)N)NC(=O)[C@H](Cc2ccc(-c3ccccc3)cc2)NC(=O)[C@H](C(C)C)NC(=O)[C@H](Cc2c[nH]c3ccccc23)NC(=O)[C@H](CC(=O)O)NC(=O)[C@H](Cc2ccc(O)cc2)NC(=O)[C@H](Cc2ccccc2)NC(=O)CSC[C@@H](C(=O)NCC(N)=O)NC(=O)[C@H](CO)NC(=O)[C@H](C(C)C)NC1=O` [Compound 1013] ({CH2CO}-FYDWV[Bip]R[NMeA][Aib]RLVSCG-NH2; thioether N-14), the IC50 turned out to be 0.16 µM. Same read-out and setting: then `CC[C@@H](C)[C@H]1NC(=O)[C@H](C)N(C)C(=O)[C@H](CCCNC(=N)N)NC(=O)[C@H](Cc2ccc(-c3ccccc3)cc2)NC(=O)[C@H](C(C)C)NC(=O)[C@H](Cc2c[nH]c3ccccc23)NC(=O)[C@H](CC(=O)O)NC(=O)[C@H](Cc2ccc(O)cc2)NC(=O)[C@H](Cc2ccccc2)NC(=O)CSC[C@@H](C(=O)N[C@@H](C)C(N)=O)NC(=O)[C@H]([C@@H](C)O)NC(=O)[C@H](C(C)C)NC(=O)[C@H](CC(C)C)NC(=O)[C@H](CCCNC(=N)N)NC1=O` [Compound 1066] ({CH2CO}-FYDWV[Bip]R[NMeA][dI]RLVTCA-NH2; thioether N-14), with 0.79 µM. Still for that read-out and setting: the result for `CC(C)C[C@@H]1NC(=O)[C@H](Cc2c[nH]c3ccccc23)NC(=O)[C@H](CC(=O)O)NC(=O)[C@H](Cc2ccncc2)NC(=O)[C@H](Cc2ccc(OCC(=O)O)cc2)NC(=O)CSC[C@@H](C(=O)N[C@@H](CC(N)=O)C(N)=O)NC(=O)[C@H]([C@@H](C)O)NC(=O)[C@H](C(C)C)NC(=O)[C@H](CC2CCCCC2)NC(=O)[C@H](CCN)NC(=O)[C@@H](CC(C)C)NC(=O)[C@H](C)N(C)C(=O)[C@H](C(C)C)NC(=O)[C@H](Cc2ccc(-c3ccccc3)cc2)NC1=O` [Compound 1902] ({CH2CO}-Y(Carboxymethyl)[4Pal]DWL[Bip]V[NMeA][dL][Dab][Cha]VTCN-NH2; thioether N-14) reads 0.01 µM.
